Results published in patent US20240286998A1, “F[…], ANALOGUES THEREOF, AND METHODS USING SAME” (Saint Joseph's University, priority 2021, published 2024).
Read-outs that look alike come from different tables or passages of the source.

Columns and labels:
[1] = target: Serotonin 5-HT2A (human) (Homo sapiens (Human), UniProt P28223); experiment: 5-HT2A receptor binding, [3H]-ketanserin competition in membrane fractions; conditions: 1 nM [3H]-ketanserin, Cheng-Prusoff, N=1-3
[2] = target: 5-HT2B (Homo sapiens (Human), UniProt P41595); experiment: 5-HT2B Gq-mediated calcium flux functional assay; type: cell-based
Sequence of 5-HT2B (P41595 whole entry): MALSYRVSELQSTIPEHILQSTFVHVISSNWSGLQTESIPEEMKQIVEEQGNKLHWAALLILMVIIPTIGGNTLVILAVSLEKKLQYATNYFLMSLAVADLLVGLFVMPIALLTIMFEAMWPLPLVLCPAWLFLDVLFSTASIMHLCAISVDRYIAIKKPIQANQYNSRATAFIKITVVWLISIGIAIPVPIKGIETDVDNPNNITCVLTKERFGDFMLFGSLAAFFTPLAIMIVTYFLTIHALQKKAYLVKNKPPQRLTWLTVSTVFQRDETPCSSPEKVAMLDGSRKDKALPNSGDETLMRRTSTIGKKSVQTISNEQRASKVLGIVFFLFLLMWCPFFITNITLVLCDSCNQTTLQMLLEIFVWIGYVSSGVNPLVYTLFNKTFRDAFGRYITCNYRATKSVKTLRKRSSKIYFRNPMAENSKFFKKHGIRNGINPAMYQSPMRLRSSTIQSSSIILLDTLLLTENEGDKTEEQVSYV

[3] = tested on: C57BL/6J mice; experiment: Head-Twitch Response (HTR) in mice; type: in vivo; conditions: for ED50: Mus musculus, ip, 0.5 h; for HTR counts over baseline / induction of HTR: compared to vehicle
Procedure: Male C57BL/6J mice (6-8 weeks old) were obtained from Jackson Laboratories (Bar Harbor, ME) and housed in a vivarium at the University of California San Diego, an AAALAC-approved animal facility that meets all federal and state requirements for care and treatment of laboratory animals. All animal experiments were carried out in accordance with NIH guidelines and were approved by the UCSD Institutional Animal Care and Use Committee. Mice were housed up to four per cage in a climate-controlled room on a reverse-light cycle (lights on at 1900 h, off at 0700 h). Animals were provided with ad libitum access to food and water, with the exception of during behavioral testing.
Testing was conducted between 1000 and 1800 h. Head movements were recorded using a head-mounted magnet and a magnetometer coil as described in Halberstadt et al. (Psychopharmacology, 2013, 227(4):727-739). For the head mounted magnet, mice were anesthetized, an incision was made in the scalp, and a neodymium magnet was attached to the dorsal surface of the cranium using dental cement. Following a 2-week recovery period, behavioral experiments were conducted in a well-lit room. At least 7 days occurred between sessions to avoid any carryover effects. Test substances (i.e., dimethyltryptamine (DMT), diethyltryptamine (DET), psilocybin, 6-fluoro-diethyltryptamine (6-F-DET), compounds 3-4, 6, 9, 12-13, 22, 33, 41, 69, 88, 166, and 178) were administered intraperitoneally (IP) at a volume of 5 mL/kg. Mice were treated with vehicle (saline) or 6 doses of the test compound and then placed in a glass cylinder surrounded by a magnetometer coil and tested for 30 min. Coil voltage was filtered (1 kHz lowpass), digitized (20 kHz sampling rate) and saved to disk using a Powerlab/8SP with LabChart v 7.3.2 (ADInstruments, Colorado Springs, CO).
The entire 30 min recordings were examined for head twitches. Established procedures based on artificial intelligence were used to identify head twitches in the recordings (Scientific Reports, 2020, 10(1):1-12). HTR counts were analyzed using one-way analyses of variance (ANOVA), followed by post hoc pairwise comparisons between individual groups and vehicle using Dunnett's multiple comparisons test. […] Median effective doses (ED50 values) and 95% confidence intervals (95% CI) were calculated using nonlinear regression (Prism 9.0.2, GraphPad Software, San Diego, CA) (Table 4 and FIGS. 1-3).

[4] = target: 5-HT2C (Homo sapiens (Human), UniProt P28335); experiment: 5-HT2C Gq-mediated calcium flux functional assay; type: cell-based
Sequence of 5-HT2C (P28335 whole entry, looked up): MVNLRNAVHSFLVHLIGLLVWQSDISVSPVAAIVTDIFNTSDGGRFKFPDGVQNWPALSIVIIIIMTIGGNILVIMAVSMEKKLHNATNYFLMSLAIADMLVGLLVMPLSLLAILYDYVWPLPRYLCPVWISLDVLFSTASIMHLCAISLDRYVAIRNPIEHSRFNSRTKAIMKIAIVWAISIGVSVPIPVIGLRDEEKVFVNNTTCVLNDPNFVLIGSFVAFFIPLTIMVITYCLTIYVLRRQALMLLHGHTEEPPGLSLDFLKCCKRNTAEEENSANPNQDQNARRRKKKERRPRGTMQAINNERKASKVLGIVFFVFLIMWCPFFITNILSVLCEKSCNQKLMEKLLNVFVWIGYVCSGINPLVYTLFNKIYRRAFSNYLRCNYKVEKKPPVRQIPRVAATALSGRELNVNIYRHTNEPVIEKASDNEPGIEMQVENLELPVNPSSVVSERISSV

[5] = target: 5-HT2A (Homo sapiens (Human), UniProt P28223); experiment: 5-HT2A Gq-mediated calcium flux functional assay; type: cell-based
[6] = tested on: human hepatocytes; experiment: Metabolic stability in cryopreserved human hepatocytes; type: in vitro ADME
Procedure: (§1) The metabolic stability of a test compounds were assessed by monitoring disappearance of each compound in the presence of cryopreserved hepatocytes for up to 1 hour at 37° C. Following protein precipitation and centrifugation, the samples were analyzed by UPLC-MS-MS. Test Compound stock solutions (10 mM) were diluted 1 in 100 (2 μL 10 mM DMSO stock+198 μL 50:50 acetonitrile:water) to provide a 100 μM working solution. Following addition of test compounds to buffer, samples were pre-incubated at 37° C. for 5 minutes prior to initiating the incubation by the addition of test compounds to hepatocytes (these were held at 37° C. during pre-incubation period). Aliquots were sampled at 0, 5, 10, 20, 40 and 60 min and added to ice cold acetonitrile to terminate the reaction and precipitate proteins. All samples were mixed, centrifuged, and the supernatants were analyzed by UPLC-MS-MS using a Phenomenex Luna Omega […], C18 100 Å, 50×2.1 mm column. The final incubation conditions were as follows: hepatocytes 0.5×10^6 viable cells/mL, test compound 1 μM (n=1), acetonitrile concentration<0.01% (v/v) and DMSO concentration<0.01% (v/v). The intrinsic clearance (Clint) and half-life (T1/2) values are determined from the slope of the parent depletion curve. Positive control compounds with known metabolic clearance were included (diltiazem and naloxone).

[7] = as above; type: in vitro ADME; conditions: cryopreserved hepatocytes, human hepatocytes, 1 μM, 37° C.; for hepatocyte CLint at 1 μM: read-out: Clint (μL/min/10^6 cells)
Procedure: as §1

[8] = target: 5-HT1A (Homo sapiens (Human), UniProt P08908); experiment: 5-HT1A Gi/o-mediated cAMP inhibition, GloSensor assay; type: cell-based
[9] = read-out: HTR ED50 μmol/kg (95% CI)
[10] = read-out: HTR ED50 mg/kg (95% CI)
[11] = cAMP inhibition, 0.2 μM isoproterenol, IA = Inactive
[12] = human hepatocytes, 1 μM, 37° C.

Structure (SMILES) | 5-HT2A pKi ± SEM [1] | EC50 [2] | 5-HT2B-Ca2+ FLUX Emax (% 5-HT) ([2]; IA = Inactive, N=1-3) | ED50 [3, 9] | ED50 [3, 10] | EC50 [4] | 5-HT2C-Ca2+ FLUX Emax (% 5-HT) ([4]; IA = Inactive, N=1-3) | EC50 [5] | 5-HT2A-Ca2+ FLUX Emax (% 5-HT) ([5]; IA = Inactive, N=1-3) | EC50 [8] | 5-HT1A-cAMP Emax (% 5-HT) [8, 11] | further results
CCCN(CCc1c[nH]c2ccc(F)cc12)C(C)C [Example 4, N-(2-(5-fluoro-1H-indol-3-yl)ethyl)-N-isopropylpropan-1-amine] | 6.02 ± 0.07 | 0.759 nM | 105.60 ± 0.7 % 5-HT | 2.18 µmol/kg | 0.65 mg/kg | 9.12 nM | 74.6 ± 2.0 % 5-HT | 0.468 nM | 99.5 ± 1.1 % 5-HT | 331 nM | 80.5 ± 2.5 % 5-HT | HTR counts over baseline / induction of HTR [3]: significant increase; metabolism by human hepatocytes ([6]; qualitative statement): rapidly metabolized; half-life at 1 μM [7]: 13 min; hepatocyte CLint at 1 μM [7]: 109 µL/min/1e6 cells
CCCN(CC)CCc1c[nH]c2cc(F)c(F)cc12 [Example 9, N-(2-(5,6-difluoro-1H-indol-3-yl)ethyl)-N-ethylpropan-1-amine] | 6.15 ± 0.21 | 1.7 nM | 96.6 ± 2.0 % 5-HT | 3 µmol/kg | 0.91 mg/kg | 19.1 nM | 100.7 ± 3.0 % 5-HT | 1.02 nM | 105.7 ± 1.9 % 5-HT | 229 nM | 89.1 ± 2.9 % 5-HT | HTR counts over baseline / induction of HTR [3]: significant increase; melting point: 83 to 86 °C
CCCN(C)CCc1c[nH]c2ccc(F)cc12 [Example 13, N-(2-(5-fluoro-1H-indol-3-yl)ethyl)-N-methylpropan-1-amine] | 6.72 ± 0.12 | 2.63 nM | 77.0 ± 1.2 % 5-HT | 4.81 µmol/kg | 1.13 mg/kg | 1.51 nM | 115.0 ± 4.0 % 5-HT | 1.58 nM | 103.0 ± 1.1 % 5-HT | 245 nM | 85.8 ± 2.5 % 5-HT | melting point: 80 to 82 °C
CCCN(CCc1c[nH]c2ccc(F)cc12)C(C)CC (stereo not shown) [compound 22, N-(2-(5-fluoro-1H-indol-3-yl)ethyl)-N-propylbutan-2-amine] | 5.97 ± 0.02 | 0.813 nM | 98.9 ± 1.6 % 5-HT | 12.4 µmol/kg | 3.88 mg/kg | 50.1 nM | 97.5 ± 2.6 % 5-HT | 0.891 nM | 105.4 ± 1.6 % 5-HT | 324 nM | 102.90 ± 1.9 % 5-HT | –
CCCN(CCc1c[nH]c2ccc(F)cc12)C1CCC1 [compound 33, N-(2-(5-fluoro-1H-indol-3-yl)ethyl)-N-propylcyclobutanamine] | 6.25 ± 0.003 | 0.589 nM | 115.6 ± 2.2 % 5-HT | 2.55 µmol/kg | 0.79 mg/kg | 19.1 nM | 105.4 ± 1.8 % 5-HT | 0.49 nM | 107.0 ± 1.9 % 5-HT | 14.5 nM | 100.7 ± 1.3 % 5-HT | 5-HT2B-Ca2+ FLUX pEC50 ([2]; IA = Inactive, N=1-3): 9.23 ± 0.07; 5-HT2C-Ca2+ FLUX pEC50 ([4]; IA = Inactive, N=1-3): 7.72 ± 0.05; 5-HT2A-Ca2+ FLUX pEC50 ([5]; IA = Inactive, N=1-3): 9.31 ± 0.06; 5-HT1A-cAMP pEC50 [8, 11]: 7.84 ± 0.04
CCN(C)CCc1c[nH]c2c(F)cc(OC)cc12 [compound 88, N-ethyl-2-(7-fluoro-5-methoxy-1H-indol-3-yl)-N-methylethan-1-amine] | 6.71 ± 0.31 | 5.62 nM | 37.5 ± 0.7 % 5-HT | 1.95 µmol/kg | 0.56 mg/kg | 20.4 nM | 86.8 ± 1.4 % 5-HT | 1.95 nM | 90.6 ± 0.8 % 5-HT | – | – | –
CCCN(CC)CCc1c[nH]c2c(F)cc(C)cc12 [compound 166, N-ethyl-N-(2-(7-fluoro-5-methyl-1H-indol-3-yl)ethyl)propan-1-amine] | 5.96 ± 0.25 | 33.1 nM | 95.9 ± 0.7 % 5-HT | 6.56 µmol/kg | 1.96 mg/kg | 200 nM | 94.6 ± 1.7 % 5-HT | 18.2 nM | 98.1 ± 0.7 % 5-HT | – | – | –
C=CC(C)N(C)CCc1c[nH]c2ccc(F)cc12 (stereo not shown) [compound 178, N-(2-(5-fluoro-1H-indol-3-yl)ethyl)-N-methylbut-3-en-2-amine] | 6.25 | 5.5 nM | 27.7 ± 0.5 % 5-HT | 3.53 µmol/kg | 0.87 mg/kg | 15.8 nM | 87.4 ± 1.5 % 5-HT | 5.37 nM | 84.7 ± 1.2 % 5-HT | – | – | –
COc1ccc([C@@H]2Sc3ccccc3N(CCN(C)C)C(=O)[C@@H]2OC(C)=O)cc1 [diltiazem, reference compound] | – | – | – | – | – | – | – | – | – | – | – | Clint (μL/min/10^6 cells) [6, 12]: 32 μL/min/10^6 cells; T1/2 [6, 12]: 44 min
C=CCN1CC[C@]23c4c5ccc(O)c4O[C@H]2C(=O)CC[C@@]3(O)[C@H]1C5 [naloxone, reference compound] | – | – | – | – | – | – | – | – | – | – | – | half-life at 1 μM [7]: 10 min; hepatocyte CLint at 1 μM [7]: 138 µL/min/1e6 cells
